Legend:
[1] = system: Radical scavenging activity; experiment: Antioxidant activity assessed as DPPH radical scavenging activity after 30 mins; format: functional
[2] = system: Radical scavenging activity; experiment: Antioxidant activity assessed as DPPH radical scavenging activity after 48 hrs; format: functional

Which results are given for `CC(=O)O[C@H]1c2ccccc2-c2c3c(cc4c2[C@@H]1N(C(C)=O)CC4)OCO3`?
Activity [1]: < 10%; IC50 [2]: 518 µM

`COc1cc2c3c(c1OC)-c1ccccc1[C@H](OC(C)=O)[C@H]3N(C(C)=O)CC2` was tested. Which Activity [1] did it give?
The Activity was under 10%.

And the IC50 [2]?
Its IC50 is 362 µM.
